ChEMBL document CHEMBL1147341, “Unprecedented oxylipins from the marine green alga Acrosiphonia coalita” (J Nat Prod, 1993)
Activity calls are given as the source filed them. The rule behind the calls is not given here.

Tested on: Candida albicans
Experiment: Antifungal activity against Candida albicans at 100 ug/disk by sensitive disk method
Assay type: functional, organism-based

CC[C@H](O)/C=C/C=C/C=C/C=O
Activity: Active
